The conditions of experiment [1]: active present in permanent wave products, compared to otherwise identically treated hair. The source says: Tear strength is viewed as a parameter for determining damage to hair; the higher the force needed to tear a hair, the better is the hair quality.
For experiment [2] the following is noted: shampoo as in Example 6, 2.0 wt. % active; 20 hairs; control without active 12.0. The procedure:
The determination of the tear strength of hair, which is an indicator of the structural integrity of the hair cortex and thus a measure of the degree of damage, was carried out by tensile-elongation measurements common for these purposes. From each hair strand we selected 20 individual hairs and determined the individual hair diameters with a computer-controlled laser micrometer. Then, by means of a tensile-elongation tester (MTT 160/600 Series Miniature Tensile Tester, Serial No. 600.95.05.001, supplied by DIA-STRON Ltd, England), the force needed to tear the individual hairs was measured.
From these individual tear strength measurements which because of the different hair diameters gave different values, the bundle tensile strength (BTS) was calculated by taking 0.08 mm for a hair diameter (average diameter). By including the hair density, finally, the conversion into the unit of bundle tensile strength (cN/tex) was performed. The higher the numerical value of the bundle tensile strength, the lower is the hair damage.

The conditions of experiment [3]: bleached hair, cycles until 63.2% of hairs are broken. The source says: The measurements of rubbing resistance make it possible to draw conclusions concerning the resistance of the hair to mechanical stresses. The measuring principle consists of exposing individual hair fibers to repeated (small) mechanical stresses and measuring the number of repeating cycles needed to make the material break. A higher number of stressing cycles indicates a higher resistance of the hair to mechanical stresses. The evaluation of the hair resistance test results, which initially consists only of determining the number of stressing cycles to hair breakage for each individual hair, is carried out by Weibull's reliability analysis. According to Weibull, the breakage frequency (here: hair breakage) can be described by the following equation: H=1−exp[−(x/Θ)]b linearized: lnln[1/(1−H)]=b(ln x)−b(ln Θ) H=breakage frequency (=cumulated hair breakage), normalized to 1 (1=100%) X=lifetime variable (=cycles to hair breakage) Θ=characteristic lifetime (number of cycles until 63.2% of the hairs are broken) b=shape parameter, slope of the fitted straight lines.
For the Weibull analysis, therefore, that data must be plotted as lnln(1/1−H) against Inx. After linear regression, the axial segment indicates b(ln Θ) and the slope gives b. The characteristic lifetime E is then obtained from exp[−(axial segment/slope)]. The longer the characteristic lifetime, the higher is the resistance of the hair to breakage.
Another important parameter for determining the condition of the hair or the degree of damage to the hair is the determination of the rubbing resistance as a measure of the mechanical weakening of the hair (see legend for FIG. 1) [sic].
To this end, after previous standardized bleaching, strands of human hair (of Caucasian origin), were subjected to the strongly weakening conditions of a permanent wave procedure or a hair tinting by standardized methods. Then, the ends of 20 individual hairs per sample, namely of 10 individual hairs per strand, were fastened to holders, and the rubbing resistance was measured.

Experiment [4] in a line: Conventional hair-care effects (combability, luster, volume, friction). As to conditions: in appropriate formulations. The source says: This is in stark contrast to the known hair-care actions of other representatives of this class of substances, for example of betaine (trimethylammonioacetate) or carnitine [3-hydroxy-4-(trimethylammonio)butyric acid]. […] Other hair-care criteria such as an increase in hair volume or an improvement in the hair fullness or hair styling were also not observed.
Tests for determining the triboelectric properties have also shown that depending on the use concentration of compounds of formulas (I) and (II) the electrostatic chargability of hair was reduced. […] This is particularly surprising considering that in no comparative test did the formulation containing as active ingredient a compound of formula (I) and (II) show a reduction in the mechanical coefficient of friction. […] The protective function therefore is independent of the typical hair-care criteria and consists only of attenuating the effects of hair-damaging factors.

“And” between values parts separate entries of the source, which are not always exact repeats. Equal entries are not always repeated. Where two headings read alike, the source gives them in different places.

For `C[n+]1cccc(C(=O)[O-])c1` [1-methylpyridinium-3-carboxylate], the tear strength result in experiment [1] is “significant increase”. The “hair strand volume after combing (electrostatic charge)” value (bleached strands, hair-treatment preparation with 0.5% active, 5 minutes, vs untreated control) is reported as “obviously smaller volume than the untreated control hairs”. In experiment [2], the “bundle tensile strength (BTS)” value is 12.64±0.4 cN/tex and 12.64 cN/tex. The “Characteristic Lifetime” value in experiment [3] (hair tinting agent + 0.1% active) is given as “increase”; in experiment [3] (hair tinting agent + 0.1% active, listed as 1-methylpyridium-3-carboxylate) it was 568; in experiment [3] (hair tinting agent + 1% active), “even higher than those shown by the chemically untreated (unbleached, natural) hair”; in experiment [3] (hair tinting agent + 1% active, listed as 1-methyl-pyridinium-3-carboxylate), “further increase”; in experiment [3] (hair tinting agent + 1% active, listed as 1-methylpyridium-3-carboxytate), 643; in experiment [3] (permanent wave formulation with 0.5% active, listed as 1-methylpyridium-3-carboxylate), 546.
Take `C[n+]1cccc(C(=O)[O-])c1.Cl` [1-Methylpyridinium-3-carboxylate hydrochloride]: the antistatic effect result (preparation containing 1% as the hydrochloride) is listed as “statistically probable antistatic effect”.
Consider `C[N+](C)(C)CC(=O)[O-]` [betaine, trimethylammonioacetate], for which, in experiment [4], the combability result is on record as “pronounced improvement” and the “luster of the hair” value is “definitely improved”.

Values taken from US20070160553A1, “Use of agents for the cosmetic treatment of keratin-containing material” (WELLA AG, priority 2004, published 2007).
